Laboratory results reported in patent US6589989B1, “Treatment of cell-mediated immune diseases” (Basilea Pharmaceutica AG, priority 1997, dated 2003).
Where “and” joins values, the source holds several entries; their conditions need not be identical. Equal entries are not always repeated.

Experiments:
[1] = tested on: T-helper cell type 1 mediated immune diseases; test: Low oral daily doses of 9-cis retinoic acid in T-helper cell type 1 mediated immune diseases
[2] = tested on: non-malignant skin-disorders, such as acne, psoriasis, lamellar ichthyosis, Darier's disease and lichen planus; conditions: low daily doses of 20 to 60 mg
[3] = higher doses; Kurie et al. 1996, Miller et al. 1996; cited from earlier work
[4] = tested on: malignant skin diseases and solid tumors of other organs; test: High oral daily doses of 9-cis retinoic acid in malignant skin diseases and solid tumors; type: in vivo; conditions: high oral daily doses of up to 300 mg
chronic hand eczema = test: Once daily oral 9-cis retinoic acid in patients with chronic hand eczema refractory to conventional treatment
Method: Fifteen patients, eight men and seven women, with chronic hand eczema, refractory to conventional treatment, were treated with 9-cis retinoic acid. Their mean age was 52.3 years, range 21-83. Before the start of 9-cis retinoic acid therapy, their eczema had already lasted for 3 months to 8 years, with a mean of 29 months. […] Therapy consisted in a once daily oral dose of 40 mg 9-cis retinoic acid, given in the form of two soft gelatin capsules containing 20 mg of 9-cis retinoic acid each, with breakfast. 8 patients received in the first week only 20 mg. Mean duration of treatment was 2 months, range 1-3 months. The following lesions and symptoms were recorded on a 0-4 scale (0=none, 1=mild, 2=moderate and 4=severe) and used for evaluating the therapeutic effect: Erythema, papules and vesicles, desquamation, hyperkeratosis, rhagades and pruritus/pain. Side effects, particularly those belonging to the hypervitaminosis A syndrome, were recorded: Headache, dry lips, other mucocutaneous manifestations, muscoskeletal symptoms and laboratory abnormalities.

[5] = 0-4 scale, individual patient, after 40 mg oral daily for 1-3 months
[6] = 0-4 scale, individual patient, before 40 mg oral daily
[7] = for all 15 patients, 40 mg daily oral
[8] = for the 14 responding patients, 40 mg daily oral
[9] = for the 14 responding patients, 40 mg daily oral, listed as 9-cis retinoic acid
[10] = individual patient, 40 mg oral daily for 1-3 months

Structure (SMILES): CC1=C(/C=C/C(C)=C\C=C\C(C)=C\C(=O)O)C(C)(C)CCC1 [9-cis RA, 9-cis retinoic acid]
- Other toxic signs and symptoms of the hypervitaminosis A syndrome, including the laboratory abnormalities ([1]; daily doses typically 20 to 60 mg, oral): not induced
- Efficacy in treatment of T-helper cell type 1 mediated immune diseases ([1]; low daily doses of 20 to 60 mg): efficacious
- Therapeutic effect on non-malignant skin-disorders [2]: no therapeutic effect
- Other mucocutaneous manifestations, musculoskeletal or other symptoms [3]: seen with higher doses
- Objective tumor regressions [4]: did not lead to major objective tumor regressions
- Side effects [4]: marked to severe side effects
- Desquamation, after treatment (chronic hand eczema; [5]): 1 (5×) and 0 (6×) and 3/3 and 0/0 (2×) and 0.5
- Erythema, after treatment (chronic hand eczema; [5]): 0 (9×) and 0.5 (2×) and 2 and 0/0 and 2/2 and 1
- Hyperkeratosis, after treatment (chronic hand eczema; [5]): 0 (8×) and 1/1 (2×) and 1 (2×) and 3/3 and 0.5 (2×)
- Papules, vesicles, after treatment (chronic hand eczema; [5]): 0 (4×) and 1 (4×) and 0/0 (6×) and 0.5
- Pruritus (+ pain), after treatment (chronic hand eczema; [5]): 0 (6×) and 1 (4×) and 2 (2×) and 7/7 and 0.5 (2×)
- Rhagades, after treatment (chronic hand eczema; [5]): 0 (12×) and 2 and 2/2 and 1
- Desquamation, before treatment (chronic hand eczema; [6]): 2 (4×) and 3 (4×) and 1 (4×) and 3/3 and 0/0 (2×)
- Erythema, before treatment (chronic hand eczema; [6]): 1 (8×) and 2 (4×) and 4 and 0/0 and 2/2
- Hyperkeratosis, before treatment (chronic hand eczema; [6]): 4 and 3 and 1/1 (2×) and 2 (8×) and 1 (2×) and 3/3
- Papules, vesicles, before treatment (chronic hand eczema; [6]): 3 (3×) and 2 (3×) and 1 (3×) and 0/0 (6×)
- Pruritus (+ pain), before treatment (chronic hand eczema; [6]): 2 (3×) and 3 (4×) and 4 (3×) and 5 (4×) and 7/7
- Rhagades, before treatment (chronic hand eczema; [6]): 3 (3×) and 2 (5×) and 1 (5×) and 0.5 and 2/2
- Regression of the various lesions and symptoms (erythema, papules and vesicles etc.) (chronic hand eczema; 40 mg daily oral): 62-100%
- Musculoskeletal or other symptoms (chronic hand eczema; 40 mg daily, 15 patients): no musculoskeletal or other symptoms were observed
- Overall response of the patients (chronic hand eczema; all fifteen patients, 40 mg daily): responded markedly
- Reduction of Lesion/symptom score, in %, mean (chronic hand eczema; [7]): 76.3%
- Reduction of Lesion/symptom score, in %, range (chronic hand eczema; [7]): 0-100%
- Reduction of Lesion/symptom score, in %, mean (chronic hand eczema; [8]): mean 81.8%
- Reduction of Lesion/symptom score, in %, range (chronic hand eczema; [8]): for the 14 responding patients 53-100, %
- Reduction of Lesion/symptom score, in %, mean (chronic hand eczema; [9]): 81.3%
- Reduction of Lesion/symptom score, in %, range (chronic hand eczema; [9]): 53-100%
- Response assessed by doctor (chronic hand eczema; [10]): very good (6×) and good (7×) and no and moderate
- Response assessed by patient (chronic hand eczema; [10]): very good (10×) and good (3×) and moderate and no
- Patients with response good, assessment by doctor, number (chronic hand eczema; of 15 patients): 7
- Patients with response good, assessment by doctor, percent (chronic hand eczema; of 15 patients): (47%)
- Patients with response good, assessment by patient, number (chronic hand eczema; of 15 patients): 3
- Patients with response good, assessment by patient, percent (chronic hand eczema; of 15 patients): (20%)
- Patients with response moderate, assessment by doctor, number (chronic hand eczema; of 15 patients): 1
- Patients with response moderate, assessment by doctor, percent (chronic hand eczema; of 15 patients): (6.5%)
- Patients with response moderate, assessment by patient, number (chronic hand eczema; of 15 patients): 1
- Patients with response moderate, assessment by patient, percent (chronic hand eczema; of 15 patients): (6.5%)
- Patients with response no, assessment by doctor, number (chronic hand eczema; of 15 patients): 1
- Patients with response no, assessment by doctor, percent (chronic hand eczema; of 15 patients): (6.5%)
- Patients with response no, assessment by patient, number (chronic hand eczema; of 15 patients): 1
- Patients with response no, assessment by patient, percent (chronic hand eczema; of 15 patients): (6.5%)
- Patients with response slight, assessment by doctor, number (chronic hand eczema; of 15 patients): 0
- Patients with response slight, assessment by doctor, percent (chronic hand eczema; of 15 patients): (0%)
- Patients with response slight, assessment by patient, number (chronic hand eczema; of 15 patients): 0
- Patients with response slight, assessment by patient, percent (chronic hand eczema; of 15 patients): (0%)
- Patients with response very good, assessment by doctor, number (chronic hand eczema; of 15 patients): 6
- Patients with response very good, assessment by doctor, percent (chronic hand eczema; of 15 patients): (40%)
- Patients with response very good, assessment by patient, number (chronic hand eczema; of 15 patients): 10
- Patients with response very good, assessment by patient, percent (chronic hand eczema; of 15 patients): (67%)
- Response considered very good or good (doctor and patient), number of patients (chronic hand eczema; of 15 patients): 13
- Response considered very good or good (doctor and patient), percent of patients (chronic hand eczema; of 15 patients): 87%
- Total Score (0-4 scale), after treatment (chronic hand eczema; sum of lesion/symptom scores, individual patient, after 40 mg oral daily for 1-3 months): 1 (3×) and 2 (4×) and 4.5 (2×) and 3 and 0 (3×) and 8 and 17/17
- Total Score (0-4 scale), before treatment (chronic hand eczema; sum of lesion/symptom scores, individual patient, before 40 mg oral daily): 15 and 14 (2×) and 11 (4×) and 10 (2×) and 17 and 9 (2×) and 17/17 and 13 and 8
- Reduction of score in % (chronic hand eczema; total score, individual patient, 40 mg oral daily for 1-3 months): 93% and 86% and 59% and 61% and 74% and 100% (3×) and 53% and 89% (2×) and 0% and 85% and 82% and 75%
